Measured values as given in patent US20160228575A1, “NARINGENIN COMPLEXES AND METHODS OF USE THEREOF” (THE GENERAL HOSPITAL CORPORATION, priority 2008, published 2016).

Assays:
ApoB = ApoB secretion by JFH-1 infected Huh-7.5.1 cells (human ApoB ELISA); assay type: cell-based; conditions: 24 hours, brefeldin A 2.5 μg/ml
Method: (§1) HCV-infected Huh-7.5.1 cells were plated on a 6-well plate at a density of 1×10^5 cells/cm^2 and cultured overnight in standard medium. Prior to the beginning of the experiment, the cells were washed 3 times with PBS and cultured with DMEM containing 5% lipoprotein-free FBS. Oleate, Insulin, Naringenin, and Brefeldin A were added at this time as described in the text. Following 24 hours of incubation, the plate was gently agitated to release mechanically bound particles, the media was collected, filtered to remove cellular debris, and stored at −80° C. for further analysis. The attached cells were washed 3 times with PBS, harvested, pelleted and stored at −80° C. for further analysis.
Huh-7.5.1 and primary human hepatocytes secreted ApoB was detected in the media using ALerCHEK, Inc (Portland, Me.) total human ApoB ELISA kit. Media was diluted 1:10 with the specimen diluent, and the assay was carried out according to manufacturer's directions.
HCV-infected Huh-7.5.1 cells were plated T-25 tissue culture flasks at a density of 1×10^5 cells/cm^2 and cultured overnight in standard medium. Prior to silencing, the cells were washed 3 times with PBS and media was replaced with OptiMEM basal medium. SureSilencing shRNA (GFP) plasmids against human ApoB100 as well as shRNA plasmid control (500 ng/ml) were combined with lipofectamine 2000 in OptiMEM and incubated with the cells overnight. SureSilencing shRNA plasmids code for GFP which was used to sort the transfected Huh7.5.1 cells, using FACSAria (BD Biosciences) located at the Partners AIDS Research Center. Transfected cells (10% of the total population) were sorted directly into a 12-well plate and allowed to adhere overnight. Culture media was conditioned by the transfected cells for 24 hours and analyzed as described above.

[1] = test system: HCV (JFH-1) secreted by infected Huh-7.5.1 cells; experiment: HCV secretion by JFH-1 infected Huh-7.5.1 cells (HCV core antigen ELISA, HCV positive strand RNA qPCR); assay type: cell-based, Hepatitis C virus
Method: The Huh-7.5.1 human hepatoma cell line and a plasmid containing the JFH-1 genome were kindly provided by Dr. Chisari (Scripps Research Institute, CA) and Dr. Wakita (National Institute of Infectious Diseases, Tokyo) respectively. Huh-7.5.1 cells were cultured in DMEM medium supplemented with 10% FBS, 200 units/ml penicillin and […] streptomycin in a 5% CO2-humidified incubator at 37° C. In vitro transcribed genomic JFH-1 RNA was delivered to cells by liposome-mediated transfection as described by Zhong et al. (2005)(8). Infected Huh-7.5.1 cells were passaged every 3 days and used at passage <15. The presence of HCV in these cells and corresponding supernatants were determined by quantitative Polymerase Chain Reaction (qPCR) and immunofluorescence staining. Primary human hepatocytes were purchased from BD Biosciences (San Jose, Calif.) cultured on a collagen-coated 12 well plate in C+H culture media composed of DMEM supplemented with 10% heat-inactivated FBS, 200 U/mL penicillin/streptomycin, 7.5 μg/mL hydrocortisone, 20 ng/mL EGF, 14 ng/mL glucagons and 0.5 U/mL insulin. The media was supplemented with 2% DMSO for long-term culture of the primary cells.
as §1
Huh-7.5.1 secreted HCV core antigen was detected in the media using Wako Chemicals (Cambridge, Mass.) ORTHO HCV antigen ELISA kit. Media was used as is, and the assay was carried out according to manufacturer's directions.
(§2) Virus samples collected in each experiment were filtered with a 0.45 μm filter and a volume of 100 μL for each sample was heated at 95° C. for 45 min. The reverse transcription reaction step was performed on a Mastercycler epgrdientS (Eppendorf) instrument using Omniscript and Sensiscript RT Kits (Qiagen). Real time PCR was performed on a Light Cycler LC-24 (Idaho Technology), using SuperScript™ III Platinum® CellsDirect Two-Step qRT-PCR Kits (Invitrogen) for quantitative PCR. For reverse transcription step, 2 μL of sample without RNA extraction were used. For real time PCR, 1 μL of the reverse transcription reactions was used. All reactions were performed according to the manufacturer's instructions using the primers detailed in Table 1.
However, this experiment was carried out on cells continuously producing the virus. Long-term treatment could potentially have a greater effect. […] This treatment is compared to the current standard-of-care, 1000 i.u. of Interferon α (IFNα). Both treatments lowered HCV RNA to a similar level, 96±5% and 93±5% respectively.

[2] = test system: HCV (JFH-1) infection of naïve Huh7.5.1 cells; experiment: HCV infectivity of cell culture supernatant on naïve Huh7.5.1 cells; assay type: cell-based, Hepatitis C virus
Method: The infectivity of the secreted HCV particles was measured as previously described (8). Naïve Huh7.5.1 cells were grown to 80% confluence and exposed to cell culture supernatants diluted 10-fold in culture media. Following 1 hour incubation at 37° C., the media was replaced, and the cells were cultured for 3 additional days. Levels of HCV infection were determined by immunofluorescence staining for HCV core protein. The viral titer is expressed as focus forming units per milliliter of supernatant (ffu/ml).

[3] = 400 mg/day oral, hypercholesterolemic patients; cited from earlier work
[4] = test system: HCV (JFH-1) in Huh-7.5.1 cells; experiment: Intracellular HCV RNA and core protein in infected Huh-7.5.1 cells; assay type: cell-based, Hepatitis C virus
Method: as §1, §2
Huh-7.5.1 cells were washed 3 times with PBS and fixed in 4% EM-grade paraformaldehyde for 10 minutes at room temperature. Slides were then washed with PBS and incubated in 100 mmol/L glycine for 15 minutes to saturate reactive groups. Samples were permeabilized for 15 minutes with 0.1% Triton X-100, blocked for 30 minutes with 1% bovine serum albumin and 5% donkey serum at room temperature, and stained with primary antibodies overnight at 4° C. After additional washes with PBS, samples were stained with fluorescently tagged secondary antibodies for 45 minutes at room temperature.

[5] = 24 hours, brefeldin A 2.5 μg/ml

Question: What does the source list for `C[C@H]1CCC/C=C/[C@@H]2C[C@H](O)C[C@H]2[C@H](O)/C=C/C(=O)O1` [brefeldin A, reference compound]?
Answer: ApoB secretion (in words) (ApoB): blocked; HCV core protein secretion (in words) [1, 5]: significantly inhibits; HCV positive strand RNA secretion (in words) [1, 5]: significantly inhibits; inhibition of infectivity of the cell supernatant ([2]; supernatant after 24 hours stimulation, naringenin 200 μM, brefeldin A 2.5 μg/ml): 89%±10%

Question: With `C[C@@H]1O[C@@H](O[C@H]2[C@H](Oc3cc(O)c4c(c3)O[C@H](c3ccc(O)cc3)CC4=O)O[C@H](CO)[C@@H](O)[C@@H]2O)[C@H](O)[C@H](O)[C@H]1O` [naringin, reference compound] as the compound, how does the “lowering of LDL levels” value [3] read?
Answer: 17%

Question: What does the source list for IFNα [reference compound]?
Answer: HCV replication (intracellular HCV RNA), long-term treatment ([4]; long-term treatment, naringenin 200 μM, IFNα 1000 i.u.): inhibited; inhibition of HCV (RNA) secretion, long-term treatment ([1]; long-term daily treatment of infected Huh7.5.1 cells, naringenin 200 μM, IFNα 1000 i.u.): 93±5%

Question: Which “ApoB secretion (in words)” value (ApoB) does the source give for “insulin: insulin obtained from Eli-Lilly [reference compound]” here?
Answer: downregulated

Question: What about the “intracellular levels of HCV (positive strand) RNA” value ([4]; 24 hours stimulation) of the same compound?
Answer: remained unchanged

Question: What about the “HCV core protein secretion (in words)” value [1, 5] of the same compound?
Answer: downregulated

Question: And the “infectivity of the cell supernatant (in words)” value ([2]; supernatant of stimulated infected Huh-7.5.1 cells)?
Answer: decreased
